The values that follow come from patent US20260174778A1, “SULFONAMIDE COMPOUND, AND PREPARATION METHOD THEREFOR AND USE THEREOF” (SHANGHAI HENLIUS BIOTECH, INC., priority 2023, published 2026).

Molecules are shown by their SMILES.

The test system of this data set is human breast cancer ZR-75-1 cell xenograft tumor. As to the kind of experiment: Anti-tumor effect in ER+KAT6high breast cancer cell xenograft tumor model (Test Example 5). It counts as in vivo, Balb/c nude mice. Conditions: for T/C / TGI / mean tumor volume: day 35; for body weight changes compared to the PF-8144 group: all doses (0.01, 0.1, 2 mg/kg). The method, then: Test Example 5: Anti-Tumor Effects of Test Compounds in ER^+KAT6^high Breast Cancer Cell-Xenograft Tumor Model
Assay method: ZR-75-1 cells were subcutaneously inoculated into the right back of each mouse to evaluate the efficacy of the compounds in the subcutaneous xenograft tumor model of ZR-75-1 cells.
• 1. Cell culture: ZR-75-1 cells were cultured as a monolayer in vitro under the following culture conditions: an RPMI 1640 medium supplemented with 10% fetal bovine serum and 1% Anti-anti (Antibiotic-Antimycotic), incubated in an incubator at 37° C. with 5% CO2. The cells were digested with trypsin-EDTA twice a week for passaging as per conventional practice. When the cell saturation reached 80%-90% and the quantity met the requirement, the cells were harvested, counted, and inoculated. • 2. Animals: Balb/c nude mice, female, 6-8 weeks old, weighing 18-22 g. A total of 128 mice were required (80 mice were enrolled). They were provided by Vital River. • 3. Tumor inoculation: Two days before tumor inoculation, 17-beta estradiol tablets (0.18 mg) were subcutaneously administered, and 10 million ZR-75-1 tumor cells+matrigel (total […]) were subcutaneously inoculated into the right back of each mouse. When the mean tumor volume reached about 137 mm^3, the mice were grouped for administration. • 4. Experimental administration: The compounds were dissolved in 5% DMSO+5% Tween 80+90% Saline, and administered intragastrically (PO) daily for five weeks. • 5. Experimental indicators: The experimental indicators were to investigate whether the tumor growth was inhibited or delayed or the tumor was cured. Tumor diameters were measured twice weekly using a vernier caliper. The tumor volume was calculated using the following formula: V=0.5a×b^2, where a and b represent the long diameter and short diameter of the tumor, respectively. • 6. The anti-tumor efficacy of the compounds was evaluated by TGI (%) or relative tumor proliferation rate T/C (%). TGI (%) refers to the tumor growth inhibition rate. Calculation of TGI (%):TGI (%)=[(1−(mean tumor volume at the end of administration in a treatment group—mean tumor volume at the start of administration in the treatment group))/(mean tumor volume at the end of treatment in the solvent control group—mean tumor volume at the start of treatment in the solvent control group)]×100%. The calculation formula for the relative tumor proliferation rate T/C (%) was as follows: T/C %=TRTV/CRTV×100% (TRTV:RTV of the treatment group; CRTV:RTV of the negative control group). The relative tumor volume (RTV) was calculated based on the tumor measurement results using the following formula: RTV=Vt/V0, where V0 represents the mean tumor volume measured at the time of grouping for administration (i.e., PG-D0), and Vt represents the mean tumor volume at a certain measurement. TRTV and CRTV were derived from data measured on the same day.
The mean and standard error of mean (SEM) of tumor volume at each time point for each group were included. The differences in tumor volume and tumor weight among the groups were statistically analyzed. For comparisons among three or more groups, one-way ANOVA was used for analysis. […] The analysis was performed using SPSS 17.0, and p<0.05 was considered to indicate a significant difference.
For comparisons between different doses of the same drug or different drugs at the same dose, two-way ANOVA was used for analysis, and the Bonferroni method was applied for testing. The analysis was performed using GraphPad Prism 9.0, and p<0.05 was considered to indicate a significant difference. On day 35 after the start of administration, the data between different doses of the same drug or different drugs at the same dose were analyzed using one-way ANOVA. […] The analysis was performed using SPSS 17.0, and p<0.05 was considered to indicate a significant difference.

Take `COc1ccc2c(c1S(=O)(=O)Nc1noc3cc(Cn4cccn4)c(F)c(OC)c13)OCCO2` [Compound 28, N-(6-((1H-Pyrazol-1-yl)methyl)-5-fluoro-4-methoxybenzo[d]isoxazol-3-yl)-6-methoxy-2,3-dihydrobenzo[b][1,4]dioxine-5-sulfonamide]: the “body weight changes compared to the PF-8144 group” value is “no statistically significant difference”. In addition, for the setting “0.01 mg/kg PO QD”, the T/C is 76.14%, the TGI came to 30.94% and the mean tumor volume is 1,017 mm^3. Further, where the note is “0.1 mg/kg PO QD”, the “efficacy compared to PF-8144” value was “significantly superior in efficacy to PF-8144”, the T/C worked out at 11.36%, the TGI is given as 98.07% and the mean tumor volume worked out at 162 mm^3. Where the note is “2 mg/kg PO QD”, the T/C is reported as 0.84%, the TGI turned out to be 109.69% and the mean tumor volume came to 12 mm^3.
Consider `COc1ccc2c(c1S(=O)(=O)Nc1noc3cc(Cn4cccn4)c(F)c(OC)c13)OCC=C2` [Compound 101, N-(6-((1H-Pyrazol-1-yl)methyl)-5-fluoro-4-methoxybenzo[d]isoxazol-3-yl)-7-methoxy-2H-chromene-8-sulfonamide], for which the “body weight changes compared to the PF-8144 group” value was “no statistically significant difference”. For the setting “0.01 mg/kg PO QD”, the T/C is reported as 19.06%, the TGI is recorded as 89.81% and the mean tumor volume was 264 mm^3. Besides, where the note is “0.1 mg/kg PO QD”, the “efficacy compared to PF-8144” value is given as “significantly superior in efficacy to PF-8144”, the T/C was 1.79%, the TGI worked out at 108.64% and the mean tumor volume is 25 mm^3. In addition, where the note is “2 mg/kg PO QD”, the T/C amounted to 0.96%, the TGI was found to be 109.56% and the mean tumor volume is reported as 14 mm^3.
`COc1ccccc1S(=O)(=O)Nc1noc2cc(Cn3cccn3)cc(OC)c12` [PF-8144, reference compound]: where the note is “0.01 mg/kg PO QD”, the T/C was 72.71%, the TGI came out at 30.19% and the mean tumor volume is 1,035 mm^3. Also, under “0.1 mg/kg PO QD”, the T/C is 40.77%, the TGI was 65.53% and the mean tumor volume was 580 mm^3. For the same compound, for the setting “2 mg/kg PO QD”, the T/C is reported as 2.51%, the TGI came to 107.85% and the mean tumor volume was 36 mm^3.

As a reminder, the T/C is the ratio of treated to control.
